{"source": "patent US8795222B2", "about": "“Device and method for treatment of surface infections with nitric oxide” (Pulmonox Technologies Corp., priority 2000, dated 2014)", "key": {"MRSA": {"system": "MRSA", "assay": "Bacteriocidal time study, 200 ppm gNO, saline suspension", "assay_type": "cell-based, Methicillin Resistant S. aureus", "protocol": "(§1) Following the dose and time ranging studies, a series of experiments were performed to determine the time required to effectively induce a bacteriocidal effect with 200 parts per million of gNO, a concentration just above the dose used in the dose-ranging study, on a representative collection of drug resistant gram-positive and gram-negative strains of bacteria associated with clinical infection. A successful bacteriocidal effect was defined as a decrease in bacteria greater than 3 log10 cfu/ml. Further, C. albicans, Methicillin Resistant S. aureus (MRSA), a particularly resistant strain of P. aeruginosa from a cystic fibrosis patient, Group B Streptococcus, and M. smegmatis were also included to see if yeast, multi-drug resistant strains of bacteria, and actinomycetes have a similar response. The drug-resistant bacteria represent a variety of pathogens that contribute to both respiratory and wound infections.\n(§2) For these experiments, saline was selected as a suspension media because it would not mask the direct effect of gNO as a bacteriocidal, whereas fully supplemented growth medium might introduce external variables (e.g., buffer or react with gNO). Other media might also provide metabolites and replenish nutrients that produce enzymes that protect bacteria from oxidative and nitrosative damage, thereby masking the effect of gNO. […] In saline, the colonies were static but remained viable. This is similar to the approach of Webert and Jean's use of animal models. Webert K E, et al (2000), Effects of inhaled nitric oxide in a rat model of Pseudomonas aeruginosa pneumonia, Crit. Care Med, 28(7):2397-2405 and Jean D, et al., (2002) Beneficial effects of nitric oxide inhalation on pulmonary bacterial clearance, Critical Care Medicine. 30(2):442-7.\n(§3) The latent period was then followed by an abrupt death of all cells. Gram negative and gram positive bacteria, antibiotic resistant bacterial strains, yeast and mycobacteria were all susceptible to 200 ppm gNO. Of importance, is the observation that the two drug resistant bacteria strains were also susceptible."}, "Klebsiella sp. #1": {"system": "Klebsiella sp. #1", "assay": "Bacteriocidal time study, 200 ppm gNO, saline suspension", "assay_type": "cell-based", "protocol": "as §1, §2, §3"}, "S. maltophilia": {"system": "S. maltophilia", "assay": "Bacteriocidal time study, 200 ppm gNO, saline suspension", "assay_type": "cell-based", "protocol": "as §1, §2, §3"}, "Kiebsiella sp. #2": {"system": "Kiebsiella sp. #2", "assay": "Bacteriocidal time study, 200 ppm gNO, saline suspension", "assay_type": "cell-based", "protocol": "as §1, §2, §3"}, "Klebsiella sp. #3": {"system": "Klebsiella sp. #3", "assay": "Bacteriocidal time study, 200 ppm gNO, saline suspension", "assay_type": "cell-based", "protocol": "as §1, §2, §3"}, "S. aureus (ATCC)": {"system": "S. aureus (ATCC)", "assay": "Bacteriocidal time study, 200 ppm gNO, saline suspension", "assay_type": "cell-based", "protocol": "as §1, §2, §3"}, "Enterobacter sp.": {"system": "Enterobacter sp.", "assay": "Bacteriocidal time study, 200 ppm gNO, saline suspension", "assay_type": "cell-based", "protocol": "as §1, §2, §3"}, "E. coli": {"system": "E. coli", "assay": "Bacteriocidal time study, 200 ppm gNO, saline suspension", "assay_type": "cell-based", "protocol": "as §1, §2, §3"}, "Serracia sp.": {"system": "Serracia sp.", "assay": "Bacteriocidal time study, 200 ppm gNO, saline suspension", "assay_type": "cell-based", "protocol": "as §1, §2, §3"}, "S. aureus (Clinical)": {"system": "S. aureus (Clinical)", "assay": "Bacteriocidal time study, 200 ppm gNO, saline suspension", "assay_type": "cell-based", "protocol": "as §1, §2, §3"}, "P. aeruginosa (ATCC)": {"system": "P. aeruginosa (ATCC)", "assay": "Bacteriocidal time study, 200 ppm gNO, saline suspension", "assay_type": "cell-based", "protocol": "as §1, §2, §3"}, "Acinetobacter sp.": {"system": "Acinetobacter sp.", "assay": "Bacteriocidal time study, 200 ppm gNO, saline suspension", "assay_type": "cell-based", "protocol": "as §1, §2, §3"}, "Mycobacterium": {"system": "Mycobacterium", "assay": "Bacteriocidal time study, 200 ppm gNO, saline suspension", "assay_type": "cell-based, M. smegmatis", "protocol": "as §1, §2\nThe latent period was then followed by an abrupt death of all cells. Gram negative and gram positive bacteria, antibiotic resistant bacterial strains, yeast and mycobacteria were all susceptible to 200 ppm gNO. Of importance, is the observation that the two drug resistant bacteria strains were also susceptible. […]"}, "human endothelial cells": {"system": "human endothelial cells", "assay": "Tube formation in matrigel", "assay_type": "cell-based", "conditions": "200 ppm NO versus air, 8 hours or 24 hours", "protocol": "Left panels at 8 hours of exposure. Right panels at 24 hours of exposure."}, "[1]": {"system": "all microorganisms tested", "assay": "Bacteriocidal time study, 200 ppm gNO, saline suspension, all organisms together", "assay_type": "cell-based", "protocol": "as §1, §2, §3"}, "P. aeruginosa": {"system": "P. aeruginosa", "assay": "gNO dose study, colony growth on agar plates", "assay_type": "cell-based", "protocol": "FIG. 7 depicts a Pseudomonas aeruginosa dosage curve for exposure to NO gas with bacteria grown on solid media. Relative percentages of growth of P. aeruginosa colony forming units (cfu) at 50, 80, 120 and 160 parts per million (ppm) of nitric oxide compared with growth of P. aeruginosa cfu in medical air (100%) are shown.\nTo study the effects of gaseous nitric oxide on potential pathogens, a custom gas exposure incubator was designed and validated for temperature, humidity, and gas concentrations, providing an environment that matches that of a microbiologic incubator, while enabling controlled exposure of precise concentrations of the gas. […] The gNO chamber allowed control and adjustment of following factors in all in vitro studies: gNO dose, total air flow, NO2 levels, O2 levels, CO2 levels, temperature, and humidity. For the initial pilot studies, two strains of bacterial pathogen were selected based on two proposed clinical applications of gNO for respiratory infections and topical application. P. aeruginosa is associated primarily with pulmonary disease, but may also be associated with skin infection such as in severe burns. S. aureus is associated with surface wound infections. Both of these micro-organisms were chosen for the pilot study.\nThe first step in the process of evaluating the direct effect of gNO on bacteria was to design a simple study to determine what dose, if any, would be an approximate lethal concentration level for microbes. Once an optimal dose was estimated, then a timing study would be conducted. For these initial studies, highly dense inoculums of P. aeruginosa and S. aureus suspensions (10^8 cfu/ml) were plated onto agar plates. These plates were then exposed to various concentrations of gNO in the exposure device in order to evaluate the effect on colony growth."}, "[2]": {"conditions": "average of the 13 bacteria listed above it, without Mycobacterium"}}}
{"molecule": "[N]=O", "note": "[gNO, nitric oxide]", "values": [{"measurement": "LD100", "setting": "MRSA", "value": 5, "unit": "h"}, {"measurement": "Latent Period*", "setting": "MRSA", "value": 3, "unit": "h"}, {"measurement": "−2.5 Log10", "setting": "MRSA; time to −2.5 log10 cfu/ml", "value": 4.2, "unit": "hrs"}, {"measurement": "LD100", "setting": "Klebsiella sp. #1", "value": 6, "unit": "h"}, {"measurement": "Latent Period*", "setting": "Klebsiella sp. #1", "value": 3, "unit": "h"}, {"measurement": "−2.5 Log10", "setting": "Klebsiella sp. #1; time to −2.5 log10 cfu/ml", "value": 3.5, "unit": "hrs"}, {"measurement": "LD100", "setting": "S. maltophilia", "value": 4, "unit": "h"}, {"measurement": "Latent Period*", "setting": "S. maltophilia", "value": 2, "unit": "h"}, {"measurement": "−2.5 Log10", "setting": "S. maltophilia; time to −2.5 log10 cfu/ml", "value": 2.8, "unit": "hrs"}, {"measurement": "LD100", "setting": "Kiebsiella sp. #2", "value": 5, "unit": "h"}, {"measurement": "Latent Period*", "setting": "Kiebsiella sp. #2", "value": 2, "unit": "h"}, {"measurement": "−2.5 Log10", "setting": "Kiebsiella sp. #2; time to −2.5 log10 cfu/ml", "value": 4.1, "unit": "hrs"}, {"measurement": "LD100", "setting": "Klebsiella sp. #3", "value": 6, "unit": "h"}, {"measurement": "Latent Period*", "setting": "Klebsiella sp. #3", "value": 3, "unit": "h"}, {"measurement": "−2.5 Log10", "setting": "Klebsiella sp. #3; time to −2.5 log10 cfu/ml", "value": 5.1, "unit": "hrs"}, {"measurement": "LD100", "setting": "S. aureus (ATCC)", "value": 4, "unit": "h"}, {"measurement": "Latent Period*", "setting": "S. aureus (ATCC)", "value": 3, "unit": "h"}, {"measurement": "−2.5 Log10", "setting": "S. aureus (ATCC); time to −2.5 log10 cfu/ml", "value": 3.3, "unit": "hrs"}, {"measurement": "LD100", "setting": "Enterobacter sp.", "value": 6, "unit": "h"}, {"measurement": "Latent Period*", "setting": "Enterobacter sp.", "value": 4, "unit": "h"}, {"measurement": "−2.5 Log10", "setting": "Enterobacter sp.; time to −2.5 log10 cfu/ml", "value": 5.3, "unit": "hrs"}, {"measurement": "LD100", "setting": "E. coli", "value": 5, "unit": "h"}, {"measurement": "Latent Period*", "setting": "E. coli", "value": 3, "unit": "h"}, {"measurement": "−2.5 Log10", "setting": "E. coli; time to −2.5 log10 cfu/ml", "value": 4.2, "unit": "hrs"}, {"measurement": "LD100", "setting": "Serracia sp.", "value": 6, "unit": "h"}, {"measurement": "Latent Period*", "setting": "Serracia sp.", "value": 4, "unit": "h"}, {"measurement": "−2.5 Log10", "setting": "Serracia sp.; time to −2.5 log10 cfu/ml", "value": 4.9, "unit": "hrs"}, {"measurement": "LD100", "setting": "S. aureus (Clinical)", "value": 4, "unit": "h"}, {"measurement": "Latent Period*", "setting": "S. aureus (Clinical)", "value": 3, "unit": "h"}, {"measurement": "−2.5 Log10", "setting": "S. aureus (Clinical); time to −2.5 log10 cfu/ml", "value": 3.7, "unit": "hrs"}, {"measurement": "LD100", "setting": "P. aeruginosa (ATCC)", "value": 3, "unit": "h"}, {"measurement": "Latent Period*", "setting": "P. aeruginosa (ATCC)", "value": 1, "unit": "h"}, {"measurement": "−2.5 Log10", "setting": "P. aeruginosa (ATCC); time to −2.5 log10 cfu/ml", "value": 2.1, "unit": "hrs"}, {"measurement": "LD100", "setting": "Acinetobacter sp.", "value": 6, "unit": "h"}, {"measurement": "Latent Period*", "setting": "Acinetobacter sp.", "value": 4, "unit": "h"}, {"measurement": "−2.5 Log10", "setting": "Acinetobacter sp.; time to −2.5 log10 cfu/ml", "value": 5, "unit": "hrs"}, {"measurement": "LD100", "setting": "Mycobacterium", "value": 10, "unit": "h"}, {"measurement": "Latent Period*", "setting": "Mycobacterium", "value": 7, "unit": "h"}, {"measurement": "−2.5 Log10", "setting": "Mycobacterium; time to −2.5 log10 cfu/ml", "value": 9.2, "unit": "hrs"}, {"measurement": "tube formation", "setting": "human endothelial cells", "value": "no significant difference"}, {"measurement": "bacteriocidal effect", "setting": "[1]", "value": "completely bacteriocidal effect"}, {"measurement": "LD100, Average", "setting": "[1]; [2]", "value": 4.77, "unit": "h"}, {"measurement": "Latent Period*, Average", "setting": "[1]; [2]", "value": 2.77, "unit": "h"}, {"measurement": "−2.5 Log10, Average", "setting": "[1]; [2]", "value": 3.82, "unit": "hrs"}, {"measurement": "reduction in cfu/ml", "setting": "[1]; every bacteria challenged", "value": "at least a three log10 reduction"}, {"measurement": "colony size and number after transfer to a conventional incubator", "setting": "P. aeruginosa; 24 hours after gNO exposure, controls overgrew", "value": "remained the same in size and number"}, {"measurement": "time required to achieve the >90% reduction of colony formation", "setting": "P. aeruginosa; gNO greater than 120 ppm, agar plates", "value": "8 to 12", "unit": "h"}, {"measurement": "reduction of colony formation", "setting": "P. aeruginosa; gNO greater than 120 ppm, agar plates, compared with medical air", "value": "greater than 90%"}, {"measurement": "survival", "setting": "P. aeruginosa; increasing gNO to 120 ppm, agar plates", "value": "5-10%"}]}
